The source of these data is publication PMC11681865, “Oligomerization of protein arginine methyltransferase 1 and its functional impact on substrate arginine methylation” (The Journal of Biological Chemistry, 2024).

Data set [1] has as its system PRMT1-WT / PRMT1-E153Q oligomers. The data set is described as follows: MALDI-MS methylation states of R4 peptide by PRMT1-WT with added PRMT1-E153Q. The format is biochemical, human. To be noted: 0.5 μM PRMT1-WT, 0-2 μM PRMT1-E153Q. The source says: (§1) It is known that PRMT1 can mono- and di-methylate an arginine residue on a protein or peptide substrate sequence, which results in monomethylarginine and asymmetric dimethylarginines product states. We attempted to examine whether oligomerization promotes PRMT1 ability to generate multiple methylation states in substrates. We used a synthetic peptide with four possible arginine methylation sites for PRMT1: the R4 peptide (Ac-[…]). R4 peptide, SAM, and different concentrations of PRMT1 were mixed in an aqueous buffer to allow methylation to occur, and then the mixture was subjected to MALDI-MS analysis. […] Our rationale is that, even though PRMT1-E153Q is catalytically dead, it can still interact with PRMT1-WT, resulting in hybrid higher oligomers. Therefore, presenting varying amounts of PRMT1-E153Q to a fixed concentration of PRMT1-WT would be another ideal way to test how oligomerization impacts on PRMT1 activity. […] Next, the concentration of PRMT1-WT was kept constant at 0.5 μM, but the concentration of PRMT1-E153Q was changed (Fig. 4). […] We further tested the methylation of the H4 peptide by 0.1 μM PRMT1-WT with the presence of PRMT1-E153Q.
Figure 4 Determine the methylation state of R4 peptide by PRMT1 and PRMT1-E153Q oligomers formation. PRMT1 and PRMT1-E153Q was incubated on ice for 20 min before the addition of 10 μM R4 and 50 μM of SAM. […]

For data set [2], the target named is T1, PRMT1 (Homo sapiens, UniProt Q99873).
T1 construct: human PRMT1 protein (amino acid residue 11–353); His6; made in house
T1 sequence (Q99873 11-353 isoform Q99873-3): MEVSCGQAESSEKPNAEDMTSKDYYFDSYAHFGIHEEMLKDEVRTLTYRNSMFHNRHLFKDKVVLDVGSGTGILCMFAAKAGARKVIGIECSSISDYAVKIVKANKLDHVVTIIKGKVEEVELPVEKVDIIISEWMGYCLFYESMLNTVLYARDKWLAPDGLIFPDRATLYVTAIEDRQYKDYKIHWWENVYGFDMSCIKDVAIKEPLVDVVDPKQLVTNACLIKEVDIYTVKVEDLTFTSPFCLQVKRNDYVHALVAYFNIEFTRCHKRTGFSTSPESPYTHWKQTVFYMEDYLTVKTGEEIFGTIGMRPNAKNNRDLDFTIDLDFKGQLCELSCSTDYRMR
The data set is described as follows: MALDI-MS methylation states of R4 peptide by PRMT1-WT. As to conditions: 0.5 μM vs 1 μM PRMT1, 10 μM R4, 50 μM SAM, 30 min. The format is biochemical.
Text: as §1
Figure 3 Determine the methylation state of R4 peptide by PRMT1 high-order oligomers. The reaction consisted of 0 μM (A), 0.5 μM (B), 1 μM (C) of PRMT1, 10 μM R4 peptide, and 50 μM SAM for 30 min at room temperature. […]

For another data set, the target named is T2, PRMT1-WT (Homo sapiens, UniProt Q99873).
T2 construct: His-MBP (N, cleaved yes); made in house; host or cells: Escherichia coli BL21 (DE3) RIPL
T2 sequence (Q99873 11-353 isoform Q99873-3): as above
The data set is described as follows: Radiometric P81 filter-binding assay, PRMT1-WT concentration dependence. The format is biochemical. To be noted: 50 μM peptide, 2 μM [3H]-SAM and 48 μM SAM, 30 min, room temperature, pH 8.0.

Data set [3] concerns the target T1, PRMT1. Put plainly: Dynamic light scattering of PRMT1 oligomers. The format is physicochemical. To be noted: no denaturant, 50 mM Hepes pH 8, 10 mM NaCl, 0.5 mM EDTA, 0.5 mM DTT, 25 °C, average of three runs of 25 scans. The source says:
Dynamic light scattering (DLS) uses a laser to measure the particle size distribution ([26]). The DLS can give information regarding the heterogeneity of protein in a sample ([27]). In the past, DLS was used to study microbial and viral structure ([28]). Nowadays, DLS is a popular method for studying nanoparticles, liposomes, and exosomes ([29], [30], [31], [32]). Researchers have also used DLS to study the protein folding of bovine serum albumin ([33]). Therefore, we envisage that the DLS can be utilized to analyze the size changes of PRMT1 oligomeric compositions in an aqueous solution. We expect to see an increase in size with increasing protein concentrations. The prepared PRMT1 protein at varied concentrations was allowed to incubate in the aqueous buffer for equilibrium on ice for 10 min. The protein solution was filtered with 0.2-micron filter to remove any big interfering particles. The protein size was analyzed using a Malvern Zetasizer instrument. We took an average of three runs with about 25 scans each time to evaluate the data. […] Guanidine hydrochloride is a popular protein denaturant ([34]). […] As a negative control, we incubated PRMT1 in the presence of 6 M guanidine hydrochloride to disrupt oligomer formation. […] A literature reported that guanidine thiocyanate is a stronger denaturant than guanidine hydrochloride ([35]).
Figure 2 Oligomerization of PRMT1 detection by dynamic light scattering. Various concentrations of PRMT1 were incubated on ice for 10 min, then filtered by 0.2-micron syringe filter and collected data from the DLS. The top line with black circle indicates PRMT1 without denaturant. The open triangle and hexagon lines indicated PRMT1 oligomeric structure disrupted by 6 M guanidine hydrochloride and 5 M guanidine thiocyanate, respectively.
Indicated concentrations of PRMT1 were incubated for 10 min on ice with buffer (50 mM Hepes pH 8, 10 mM NaCl, 0.5 mM EDTA, 0.5 mM DTT) and filtered through the 0.22 μm syringe filter. For the experiment to disrupt the oligomer formation, 6 M of guanidine hydrochloride or 5 M of guanidine thiocyanate was added to the reaction. The samples were injected into the 1 ml disposable cuvette and measured by Zetasizer Nano ZS (Malvern Instruments) at 25 °C. Three measurements of 25 scans each were collected to average. The data was analyzed by the Malvern Zetasizer software v7.10.

In another data set the test system is R4 peptide. Put plainly: MALDI-MS methylation activity of PRMT1-E153Q and PRMT1-WT on R4 peptide. The format is biochemical. To be noted: 2 μM PRMT1, 10 μM R4, 50 μM SAM, 30 min, room temperature.
Text: as §1
The reaction buffer contained 50 mM Hepes pH 8.0, 10 mM NaCl, 0.5 mM EDTA, and 0.5 mM DTT. The reaction consisted of PRMT1 at various concentrations, 10 μM of R4 (Peptide Sequence: Ac-[…]), and 50 μM of SAM. […]

Entries after “also recorded” stand apart in the source; their conditions may differ.

On to “Ac-GGRGGFGGRGGKGGRGGFGGRGGFG [R4 peptide, synthetic peptide with four possible arginine methylation sites for PRMT1]”, for which the “R4 methylation states vs PRMT1-E153Q concentration” value in data set [1] was “the amounts of all of the different methylation states increased as more and more PRMT1-E153Q protein was added; also recorded: hexa- and hepta-methylated R4 peptides appeared when PRMT1-E153Q was increased up at 2 μM”. At PRMT1 [2], the “methylation states observed” value was “multimethylated by PRMT1, from monomethylation to penta-methylation and hexa-methylation; also recorded: the hexa-methylation peak was only observed at 1 μM”. In addition, the “PRMT1 enzymatic activity (CPM) vs PRMT1 concentration” value at PRMT1-WT is recorded as “increase as higher-order oligomeric structures were formed”.
For “protein arginine methyltransferase 1 [PRMT1]”, the “Z-average vs PRMT1 concentration” value with PRMT1 [3] is “increased gradually with the increase in PRMT1 concentration”. Further, the “number of methylation states in R4 substrate by PRMT1-WT” value with R4 peptide is recorded as “up to six methylation states in the R4 substrate”.
